Source: patent publication US11731977B2, “SGC stimulators” (Cyclerion Therapeutics, Inc., priority 2016, dated 2023)
Where two headings read alike, the source gives them in different places.

Columns and labels:
[1] = system: cAMP response element-binding protein (CREB); assay: pCREB phosphorylation in rat primary neurons (Example 12); format: cell-based; details: Primary neuron, 10 μM DETA-NONOate
Source text: Objective. To assess the ability of Compound I-1 to activate cAMP response element-binding protein (CREB) in rat primary neurons. CREB is a cellular transcription factor. It binds to DNA sequences called cAMP response elements (CRE), and regulates transcription of the downstream genes (See Bourtchuladze R, et al., Cell 1994; 79 (1): 59-68). […] CREB proteins are activated by phosphorylation of Serine 133 by various kinases, including cAMP-dependent protein kinase or Protein Kinase A (PKA), cGMP-dependent protein kinase or Protein Kinase G (PKG), and Ca2+/calmodulin-dependent protein kinases. (See Shaywitz A J and Greenberg M E, Annual Review of Biochemistry 1999; 68 (1): 821-861 and Wong J C, et al., J Cell Biochem 2012: 113(11):3587-98). Stimulation of CREB could have therapeutic benefits for diseases in which cognition, neuronal plasticity, and or neuronal function is impaired.
Compounds. Compound I-1 was dissolved in DMSO as a 10 mM solution and stored at −20° C. […]
Assay Conditions. […] Medium was removed and cell were lysed and assay was performed according to Cisbio protocol (phospho-CREB (Ser133) catalog #64CREPEG) and the plate was read using Envision instrument (PerkinElmer).
Data Analysis. Data were analyzed with a 4-parameter fit (log(agonist) vs. response—variable slope) using GraphPad Prism Software v.7. […]

rats [2] = assay: Inflammatory pain: carrageenan, paw pressure test (Example 13); format: in vivo, rat; details: Compound I-1 p.o. 10 mg/kg, 120 minutes after treatment
[3] = system: Sprague-Dawley rats, streptozotocin model; assay: Rat model of diabetic neuropathy (STZ model), paw pressure test (Example 14); format: in vivo; details: Compound I-1 10 mg/kg p.o., mean±s.e.m.
rats [4] = assay: Acute and tonic pain: healthy rats, paw pressure test (Example 13); details: Compound I-1 p.o. 10 mg/kg, 120 minutes after treatment

EC50 ([1]; read-out: 95% confidence interval of EC50, phosphorylation of CREB at Ser133): 0.5 to 17.8 nM
EC50 ([1]; 0.5 h, 30 min, read-out: EC50, phosphorylation of CREB at Ser133): 3 nM
SMILES: Fc1ccccc1Cc1nc(-c2nc(C(F)(F)F)n[nH]2)cn2ccnc12 [Compound I-1, 8-(2-fluorobenzyl)-6-(3-(trifluoromethyl)-1H-1,2,4-triazol-5-yl)imidazo[1,2-a]pyrazine]
% of activity vs. vehicle (rats [2]): 38%
nociceptive threshold (paw pressure test) ([3]; D18, 60 min post administration, gabapentin 100 mg/kg p.o., morphine 4 mg/kg s.c.): 328 ± 32.6 g
nociceptive threshold (paw pressure test) ([3]; D18, 120 min post administration, gabapentin 100 mg/kg p.o., morphine 4 mg/kg s.c.): 387 ± 30.2 g
nociceptive threshold (paw pressure test) ([3]; D18, 180 min post administration): 319 ± 23.1 g
nociceptive threshold (paw pressure test) ([3]; D21, 120 min after dosing, gabapentin 100 mg/kg p.o., morphine 4 mg/kg s.c.): 346 ± 20.5 g
nociceptive threshold (paw pressure test) ([3]; D21, baseline prior to administration (Cmin, daily dosing from D18)): 259 ± 25.6 g
% of activity vs. vehicle (rats [4]): −6%
